The target in assay [1] is T1, jack bean urease (Canavalia ensiformis, UniProt P07374). Description: Urease inhibition assay. The following applies: for % inhibition: value in parentheses after IC50, concentration not given. The assay is classed as biochemical.
Assay [2] deals with T1, jack bean urease. Description: Enzyme kinetic studies. The assay is classed as biochemical. To be noted: for Mode of inhibition: Lineweaver–Burk plots.
The mark [3] stands for this setting: at 20 μM concentration of the inhibitor.

The values that follow come from PMC8981555 (RSC Advances, 2022).

Like-named read-outs stand apart in the source and are kept apart here.

The term IC50 denotes the concentration that gives 50% inhibition. As a reminder, the % inhibition is how much of the control response was suppressed. The term Ki denotes a measure of affinity in units of concentration, obtained from inhibition or displacement.

T1 sequence (P07374 whole entry, looked up): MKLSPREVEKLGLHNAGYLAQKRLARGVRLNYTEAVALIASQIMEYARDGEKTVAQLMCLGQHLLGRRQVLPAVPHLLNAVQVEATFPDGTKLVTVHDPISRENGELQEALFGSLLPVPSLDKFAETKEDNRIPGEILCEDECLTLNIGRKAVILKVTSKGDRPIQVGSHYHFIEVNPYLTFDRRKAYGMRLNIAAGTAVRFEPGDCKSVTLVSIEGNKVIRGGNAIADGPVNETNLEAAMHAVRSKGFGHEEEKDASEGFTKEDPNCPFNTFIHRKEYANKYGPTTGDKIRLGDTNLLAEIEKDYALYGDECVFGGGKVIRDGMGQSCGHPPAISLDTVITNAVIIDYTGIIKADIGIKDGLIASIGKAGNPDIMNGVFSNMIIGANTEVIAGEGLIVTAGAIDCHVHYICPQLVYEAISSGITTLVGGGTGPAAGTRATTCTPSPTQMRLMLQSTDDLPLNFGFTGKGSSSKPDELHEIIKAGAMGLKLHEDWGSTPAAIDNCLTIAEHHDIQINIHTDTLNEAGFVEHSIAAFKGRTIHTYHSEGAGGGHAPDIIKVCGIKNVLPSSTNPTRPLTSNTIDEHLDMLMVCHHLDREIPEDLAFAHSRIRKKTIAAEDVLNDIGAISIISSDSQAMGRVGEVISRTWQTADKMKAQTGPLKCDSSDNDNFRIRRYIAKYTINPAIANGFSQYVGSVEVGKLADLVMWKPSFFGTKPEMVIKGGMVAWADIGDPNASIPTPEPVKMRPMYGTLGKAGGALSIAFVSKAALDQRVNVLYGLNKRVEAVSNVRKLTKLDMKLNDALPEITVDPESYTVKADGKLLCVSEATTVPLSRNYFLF

For the compound `CCCCCCCC(=O)NC(=S)Nc1cc(C)ccc1C` [Compound 3d, N-(2′,5′-Dimethylphenylcarbamothioyl) octanamide], on jack bean urease [1], the IC50 is 60.1 ± 0.78 µM and the “% inhibition” value is recorded as 61.3%.

Turning to `CCCCCCCC(=O)NC(=S)Nc1ccc(C)c(C)c1` [Compound 3f, N-(3′,4′-Dimethylphenylcarbamothioyl) octanamide], at jack bean urease [1], half-maximal inhibition (IC50) was put at 40.2 ± 0.45 µM and the “% inhibition” value was 76.2%.

Regarding `CCCCCCCC(=O)NC(=S)Nc1c(C)cccc1C` [Compound 3g, N-(2′,6′-Dimethylphenylcarbamothioyl) octanamide], at jack bean urease [2], the affinity, expressed as Ki, was 9.28 µM and the Mode of inhibition result is “Competitive”. Also, on jack bean urease [2] (setting [3]), the “K m(app)” value was 6.09 mM and the “V max(app)” value was 15.63 µM/min. At jack bean urease [1], the IC50 was 15.2 ± 0.58 µM and the “% inhibition” value amounted to 96.3%.

As to `CCCCCCCC(=O)NC(=S)Nc1cc([N+](=O)[O-])ccc1OC` [Compound 3h, N-(2′-Methoxy-5′-nitrophenylcarbamothioyl) octanamide], at jack bean urease [1], it took 30.6 ± 0.75 µM to reach half-maximal inhibition (IC50) and the “% inhibition” value is given as 88.1%.

`CCCCCCCC(=O)NC(=S)Nc1c(Cl)cccc1Cl` [Compound 3i, N-(2′,6′-Dichlorophenylcarbamothioyl) octanamide]: on jack bean urease [1], inhibition was half-maximal at 22 ± 0.45 µM (IC50) and the “% inhibition” value is on record as 91.4%.

For `CCCCCCCC(=O)NC(=S)Nc1ccccc1Sc1ccccc1` [Compound 3j, N-(2′-(Phenylthio)phenylcarbamothioyl) octanamide], at jack bean urease [1], 39.1 ± 0.72 µM corresponded to half-maximal inhibition (IC50) and the “% inhibition” value came out at 86.5%.

`CCCCCCCC(=O)NC(=S)Nc1cccc(C)c1C` [Compound 3k, N-(2′,3′-Dimethylphenylcarbamothioyl) octanamide]: at jack bean urease [1], the IC50 came to 46.2 ± 0.78 µM and the “% inhibition” value amounted to 85.8%.

Turning to `CCCCCCCC(=O)NC(=S)Nc1ccc(C(F)(F)F)cc1` [Compound 3m, N-(4′-(Trifluoromethyl)phenylcarbamothioyl) octanamide], at jack bean urease [1], the IC50 is 31.16 ± 0.25 µM and the “% inhibition” value is on record as 95.9%.

With `CCCCCCCCCCCC(=O)NC(=S)Nc1ccc(Cl)c(Cl)c1` [Compound 3p, N-(3′,4′-Dichlorophenylcarbamothioyl) dodecanamide], on jack bean urease [1], the 50% inhibitory concentration (IC50) is 20.2 ± 0.48 µM and the “% inhibition” value is 85.2%.

`NC(N)=S` [Thiourea, reference compound]: at jack bean urease [2], the Mode of inhibition result was “Competitive”. For the same compound, on jack bean urease [2] (setting [3]), the “K m(app)” value was determined as 2.18 mM. Also, the affinity at jack bean urease [2] (derived from Lineweaver–Burk and Dixon plots) corresponds to a Ki of 18.2 µM. Besides, on jack bean urease [1], the “% inhibition” value amounted to 92.1%.
